Among the test systems are IGROV-1; K562; LOX IMVI; MOLT-4; NCI-H23; NCI-H460; NCI-H522; OVCAR-3; RXF 393; SK-MEL-28; SN12C; SNB-19; SW-620; TK-10; UACC-257; A498; DLD-1; SNB-75; SNB-78; SK-MEL-5.
What all share (test): growth of human tumour cells (NCI), 48 h

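Each compound was tested at five concentrations against cells in 96-well plates for 48 hours. Here, GI50 denotes the concentration required for 50% inhibition of growth.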 Calls of active or inactive are those of the source. Cut-off read from the data, not from the text of the source: active = GI50 up to about 1.1 µM and inactive = higher.

Experimental findings from ChEMBL document CHEMBL1201862, “PubChem BioAssay data set” (2004) are described below.

With `O=S(=O)(c1ccc(I)cc1)N(c1ccccc1)S(=O)(=O)C(F)(F)C(F)(F)C(F)(F)C(F)(F)F`, the GI50 in the assay with IGROV-1 is > 100 µM (inactive); with K562, 41.6 µM (inactive); in the assay on LOX IMVI, 96.2 µM (inactive); in the assay on MOLT-4, 39.4 µM (inactive); in the assay with NCI-H23, 43.2 µM (inactive); in the assay on NCI-H460 it was 31.9 µM (inactive). Besides, the GI50 is 28.2 µM (inactive) with NCI-H522; 22.6 µM (inactive) in the assay on OVCAR-3; 24.8 µM (inactive) in the assay on RXF 393; 40.6 µM (inactive) in the assay on SK-MEL-28; > 100 µM (inactive) with SN12C; 74.3 µM (inactive) in the assay on SNB-19. Also, the results for the GI50 with SW-620, with TK-10 and in the assay with UACC-257 were 34.7 µM (inactive), 14.2 µM (inactive) and > 100 µM (inactive), respectively.

Take `Cc1ccc(SSCCCCCS(=O)O)cc1`: the GI50 in the assay with A498 was 19 µM (inactive); with DLD-1, 33.9 µM (inactive); in the assay with K562 it was 21.2 µM (inactive); in the assay on LOX IMVI, 16.8 µM (inactive); in the assay with MOLT-4, 6.34 µM (inactive); in the assay with NCI-H23 it was 28.2 µM (inactive). In addition, the GI50 was 48.5 µM (inactive) in the assay with NCI-H460; 14.6 µM (inactive) in the assay on NCI-H522; 22.2 µM (inactive) in the assay with OVCAR-3; 15.4 µM (inactive) in the assay with RXF 393; 46.5 µM (inactive) in the assay with SK-MEL-28; 20.6 µM (inactive) in the assay on SN12C. The GI50 with SNB-19 is 35.4 µM (inactive); in the assay on SNB-75 it was 29.6 µM (inactive); in the assay with SNB-78, 25.4 µM (inactive); with TK-10, 26.9 µM (inactive); with UACC-257, 31.2 µM (inactive).

`CC(=O)Oc1ccccc1[C@H]1CC(=O)C[C@H](c2ccccc2OC(C)=O)C12C(=O)c1ccccc1C2=O`: the GI50 in the assay with A498 was 25.6 µM (inactive); with IGROV-1 it was 44.5 µM (inactive); in the assay on K562, 12.7 µM (inactive); in the assay with MOLT-4, 17.8 µM (inactive); in the assay on NCI-H23 it was 26.4 µM (inactive); in the assay with NCI-H460, 19.1 µM (inactive). Further, the GI50 in the assay with NCI-H522 was 26.7 µM (inactive); in the assay with OVCAR-3, 22.1 µM (inactive); in the assay on RXF 393 it was 24.6 µM (inactive); with SK-MEL-28, 17 µM (inactive); with SK-MEL-5, 22.4 µM (inactive); in the assay on SN12C it was 37.4 µM (inactive). In addition, the GI50 was 60.4 µM (inactive) with SNB-19 and 17.9 µM (inactive) with SNB-75.

For `COc1cccc(NC(=O)CC(=O)NN2C(=O)/C(=C/c3ccc(N(CCC#N)CCC#N)cc3)N=C2c2cc([N+](=O)[O-])ccc2Cl)c1`, the GI50 in the assay on DLD-1 was 60.3 µM (inactive); in the assay with IGROV-1, > 100 µM (inactive); with K562, 44.3 µM (inactive); in the assay with LOX IMVI, > 100 µM (inactive); in the assay with MOLT-4 it was 3.53 µM (inactive); in the assay on NCI-H23 it was > 100 µM (inactive). Further, the GI50 is 43.9 µM (inactive) in the assay on NCI-H522; > 100 µM (inactive) in the assay on OVCAR-3; > 100 µM (inactive) with RXF 393; > 100 µM (inactive) with SK-MEL-28; 42.2 µM (inactive) in the assay on SK-MEL-5; > 100 µM (inactive) with SN12C. In addition, the GI50 with SNB-19, with SNB-78, in the assay with SW-620 and with TK-10 was > 100 µM (inactive) each time.

`COc1ccc(CCn2nccc2C)cc1`: the GI50 in the assay on IGROV-1, in the assay on K562, in the assay on LOX IMVI, in the assay with MOLT-4, in the assay on NCI-H23 and in the assay with NCI-H460 was > 100 µM (inactive) each time. In addition, the GI50 is > 100 µM (inactive) with OVCAR-3; > 100 µM (inactive) in the assay on RXF 393; > 100 µM (inactive) in the assay with SK-MEL-28; > 100 µM (inactive) in the assay with SK-MEL-5; 80.9 µM (inactive) in the assay with SN12C; > 100 µM (inactive) in the assay with SNB-19. Also, the GI50 is 50.7 µM (inactive) in the assay on SNB-75, > 100 µM (inactive) in the assay with SW-620, > 100 µM (inactive) with TK-10 and > 100 µM (inactive) in the assay with UACC-257.

Turning to `COc1ccccc1-c1cc(O)c2cc(C)cnc2n1`, the GI50 in the assay with A498 is 24.9 µM (inactive); in the assay with IGROV-1, 16.4 µM (inactive); in the assay on K562, 5.89 µM (inactive); in the assay on LOX IMVI, 46 µM (inactive); with MOLT-4, 31.5 µM (inactive); in the assay on NCI-H23, 40 µM (inactive). The GI50 with NCI-H522 was 17.2 µM (inactive); in the assay with RXF 393, 33.4 µM (inactive); in the assay with SK-MEL-28 it was 22.6 µM (inactive); in the assay on SN12C it was 66.4 µM (inactive); with SNB-19, 71.9 µM (inactive); in the assay with SW-620, 24.7 µM (inactive). Also, the GI50 was > 100 µM (inactive) with TK-10 and 38 µM (inactive) in the assay with UACC-257.

Turning to `C=C1C2=C(CCCC2)C(=O)OC12CCCCC2`, the GI50 is 92.7 µM (inactive) with DLD-1; 88.9 µM (inactive) in the assay with IGROV-1; 45.2 µM (inactive) in the assay with K562; 66.4 µM (inactive) in the assay on LOX IMVI; 38.5 µM (inactive) in the assay with MOLT-4; 36.9 µM (inactive) with NCI-H23. Besides, the GI50 in the assay with NCI-H460 was 91.4 µM (inactive); in the assay with NCI-H522, 35.5 µM (inactive); in the assay with OVCAR-3 it was 43.5 µM (inactive); in the assay on RXF 393, 56.5 µM (inactive); in the assay on SK-MEL-28, 79.4 µM (inactive); with SK-MEL-5, 38 µM (inactive). Further, the GI50 is > 100 µM (inactive) in the assay on SN12C; > 100 µM (inactive) in the assay on SNB-19; 23.8 µM (inactive) in the assay on SNB-75; > 100 µM (inactive) with SW-620; > 100 µM (inactive) with TK-10; 52.1 µM (inactive) in the assay on UACC-257.

Consider `Cc1n(CC(=O)c2ccc([N+](=O)[O-])cc2)c2c([n+]1CC(C)C)C(=O)c1ccccc1C2=O`, for which the GI50 in the assay on A498 is 0.668 µM (active); with DLD-1 it was < 0.0394 µM (active); with IGROV-1, < 0.01 µM (active); with K562, < 0.01 µM (active); with LOX IMVI it was < 0.01 µM (active); with MOLT-4, < 0.0204 µM (active). The GI50 in the assay with NCI-H23 was < 0.01 µM (active); in the assay on NCI-H460, < 0.04 µM (active); in the assay with NCI-H522 it was < 0.01 µM (active); in the assay with OVCAR-3, < 0.0424 µM (active); with SK-MEL-28, 0.0411 µM (active); in the assay on SK-MEL-5, < 0.0106 µM (active). Also, the GI50 was < 0.01 µM (active) in the assay on SN12C; < 0.015 µM (active) in the assay on SNB-19; < 0.0356 µM (active) in the assay with SNB-75; < 0.0137 µM (active) with SNB-78; < 0.01 µM (active) in the assay on SW-620; < 0.01 µM (active) in the assay on UACC-257.

Take `Cc1nc2c(n1C)C(=O)c1nc(CBr)[nH]c(=O)c1C2=O`: the GI50 in the assay with A498 is > 100 µM (inactive); in the assay on DLD-1, > 100 µM (inactive); in the assay with IGROV-1 it was > 100 µM (inactive); in the assay on K562 it was > 100 µM (inactive); with LOX IMVI it was 46.5 µM (inactive); in the assay on MOLT-4 it was > 100 µM (inactive). For the same molecule, the GI50 is > 100 µM (inactive) in the assay on NCI-H23; > 100 µM (inactive) with NCI-H460; > 100 µM (inactive) with NCI-H522; > 100 µM (inactive) with RXF 393; > 100 µM (inactive) in the assay on SK-MEL-28; 20.3 µM (inactive) in the assay with SK-MEL-5. The GI50 in the assay with SN12C, in the assay on SNB-19, in the assay on SW-620 and with TK-10 was > 100 µM (inactive) in each case.

With `COc1ccccc1NC(=O)C(=O)C(C(=O)c1ccccc1F)C1OC(=O)c2ccccc21` (configuration not stated), the GI50 with A498 was 59.8 µM (inactive); in the assay on DLD-1, 33.3 µM (inactive); in the assay on IGROV-1, 52.6 µM (inactive); in the assay with K562 it was 32.7 µM (inactive); in the assay on LOX IMVI, 20.8 µM (inactive); with MOLT-4, 15.5 µM (inactive). Further, the GI50 in the assay on NCI-H23 is 20 µM (inactive); in the assay on NCI-H460, 25.8 µM (inactive); in the assay on NCI-H522, 16.9 µM (inactive); in the assay with RXF 393, 42.9 µM (inactive); in the assay with SK-MEL-28, 46.3 µM (inactive); with SK-MEL-5, 39.1 µM (inactive). Further, the GI50 is 24.2 µM (inactive) in the assay on SN12C; 19.3 µM (inactive) in the assay with SNB-19; 21.9 µM (inactive) in the assay with SNB-75; 25.5 µM (inactive) in the assay with SNB-78; 32.9 µM (inactive) with SW-620; 50 µM (inactive) in the assay on TK-10. In the assay on UACC-257, the GI50 is 54.8 µM (inactive).

Turning to `CCCCSCCC(N)P(=O)(O)O` (configuration not stated), the GI50 in the assay on IGROV-1, in the assay on K562, with LOX IMVI, with MOLT-4, with NCI-H23 and in the assay on NCI-H460 was > 100 µM (inactive) each time. Also, the GI50 in the assay with NCI-H522, in the assay on OVCAR-3, with SK-MEL-28, with SK-MEL-5, in the assay with SN12C and in the assay with SNB-19 was > 100 µM (inactive) throughout. For the same molecule, the GI50 in the assay on SNB-75, in the assay on SW-620, with TK-10 and with UACC-257 was > 100 µM (inactive) each time.

With `c1ccc2c(NCCCCCCCCNc3cccc4ccccc34)cccc2c1`, the GI50 with A498 is 44.1 µM (inactive); with DLD-1, 34.2 µM (inactive); with IGROV-1 it was 49.8 µM (inactive); in the assay with K562, 21.5 µM (inactive); in the assay with MOLT-4, 16.7 µM (inactive); with NCI-H23, 25.3 µM (inactive). Moreover, the GI50 with NCI-H460 is 21.7 µM (inactive); in the assay with NCI-H522 it was 16.4 µM (inactive); in the assay on OVCAR-3 it was 34 µM (inactive); in the assay with SK-MEL-28, 19.5 µM (inactive); with SK-MEL-5, > 10 µM (inactive); in the assay on SN12C, 35.6 µM (inactive). Also, the GI50 in the assay on SNB-19 is > 100 µM (inactive); in the assay with SNB-75, 21.4 µM (inactive); with SNB-78, 46.8 µM (inactive); with SW-620, 21.1 µM (inactive); with TK-10 it was 24.3 µM (inactive); in the assay on UACC-257, 19.8 µM (inactive).
